# Measurements taken from US12398097B2, “WDR5-MYC inhibitors” (Vanderbilt University, priority 2019, dated 2025).
# Molecular target: WDR5 (Homo sapiens, UniProt P61964)
# Test: Competition-based fluorescence polarization anisotropy assay
# Details: binding to WDR5; displacement of FITC-labeled small molecule probe (analogous to Example J2 or HCH-25) or peptide probe FITC-AHx-SEEEIDVVSV; pH 6.0; Ki converted from IC50
# How it was run: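 Competition fluorescence polarization anisotropy binding to WDR5 using a FITC-labeled peptide probe or a fluorescently labeled small-molecule probe. Buffer: 200 mM phosphate, 300 mM NaCl, 0.5 mM TCEP, 0.1% Chaps, pH 6.0. Displacement data were converted to Ki.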
row,Ki [nM],Molecule
1,610,"O=C(NC1COC1)c1cc(C2CC2)cc(NS(=O)(=O)c2cc(Br)cc(Cl)c2O)c1F [Example J159, 3-((5-Bromo-3-chloro-2-hydroxyphenyl)sulfonamido)-5-cyclopropyl-2-fluoro-N-(oxetan-3-yl)benzamide]"
2,3240,"CC(C)[C@H](C)Nc1ccc(Br)cc1S(=O)(=O)Nc1cc(C2CC2)cc(C(=O)O)c1O [Example J76, (S)-3-((5-Bromo-2-((3-methylbutan-2-yl)amino)phenyl)sulfonamido)-5-cyclopropyl-2-hydroxybenzoic acid]"
3,140,"O=C(N[C@H]1CCOC1)c1cc(C2CC2)cc(NS(=O)(=O)c2cc(Br)cc(Cl)c2O)c1O [Example J97, (S)-3-((5-Bromo-3-chloro-2-hydroxyphenyl)sulfonamido)-5-cyclopropyl-2-hydroxy-N-(tetrahydrofuran-3-yl)benzamide]"
4,530,"O=S(=O)(Nc1cc(Cl)cc(S(=O)(=O)NCC2CCCO2)c1O)c1cc(Br)ccc1O (stereo not shown) [Example S32-2, 5-Bromo-N-(5-chloro-2-hydroxy-3-(N-((tetrahydrofuran-2-yl)methyl)sulfamoyl)phenyl)-2-hydroxybenzenesulfonamide]"
5,90,"CS(=O)(=O)c1cc(C(F)(F)F)cc(NS(=O)(=O)c2cc(Br)ccc2O)c1O [Example S25, 5-Bromo-3-2-hydroxy-N-(2-hydroxy-3-(methylsulfonyl)-5-(trifluoromethyl)phenyl)benzenesulfonamide]"
6,580,"Cc1c(C2CC2)cc(NS(=O)(=O)c2cc(Br)ccc2O)c(O)c1C(=O)O [Example J185, 3-((5-Bromo-2-hydroxyphenyl)sulfonamido)-5-cyclopropyl-2-hydroxy-6-methylbenzoic acid]"
7,110,"O=S(=O)(Nc1cc(S(F)(F)(F)(F)F)ccc1O)c1cc(Br)ccc1O [JDM-08-142A, 5-Bromo-2-hydroxy-N-(2-hydroxy-5-(pentafluorosulfanyl)phenyl)benzenesulfonamide]"
8,30,"O=C(O)c1cc(S(F)(F)(F)(F)F)cc(NS(=O)(=O)c2cc(Br)ccc2O)c1O [Example S65, 3-((5-Bromo-2-hydroxyphenyl)sulfonamido)-2-hydroxy-5-(pentafluoro-λ^6-sulfaneyl)benzoic acid]"
9,770,"O=C(NCCO)c1c(O)c(NS(=O)(=O)c2cc(Br)ccc2O)cc(C2CC2)c1F [Example J126, 3-((5-Bromo-2-hydroxyphenyl)sulfonamido)-5-cyclopropyl-6-fluoro-2-hydroxy-N-(2-hydroxyethyl)benzamide]"
10,650,"O=C(O)CNC(=O)c1cc(OC(F)(F)F)cc(NS(=O)(=O)c2cc(Br)ccc2O)c1O [HCH-1, (3-((5-Bromo-2-hydroxyphenyl)sulfonamido)-2-hydroxy-5-(trifluoromethoxy)benzoyl)glycine]"
11,170,"CS(=O)(=O)c1cc(Cl)cc(NS(=O)(=O)c2cc(Br)cc(Cl)c2O)c1 [Example S8, 5-Bromo-3-chloro-N-(3-chloro-5-(methylsulfonyl)phenyl)-2-hydroxybenzenesulfonamide]"
12,170,"CNC(=O)c1cc(C2(C#N)CCC2)cc(NS(=O)(=O)c2cc(Cl)cc(Cl)c2O)c1O [Example J216, 5-(1-Cyanocyclobutyl)-3-((3,5-dichloro-2-hydroxyphenyl)sulfonamido)-2-hydroxy-N-methylbenzamide]"
13,2320,"CNC(=O)c1cc(C2CC2)cc(NS(=O)(=O)c2cc(Br)cc(F)c2O)c1O [Example J98, 3-((5-Bromo-3-fluoro-2-hydroxyphenyl)sulfonamido)-5-cyclopropyl-2-hydroxy-N-methylbenzamide]"
14,640,"O=C(O)c1c(O)c(NS(=O)(=O)c2cc(Br)ccc2O)cc(-c2ccsc2)c1F [Example J199, 3-((5-Bromo-2-hydroxyphenyl)sulfonamido)-6-fluoro-2-hydroxy-5-(thiophen-3-yl)benzoic acid]"
15,15500,"CNS(=O)(=O)c1cc(Cl)cc(NS(=O)(=O)c2cc(Br)ccc2O)c1O [Example S29, 5-bromo-N-(5-chloro-2-hydroxy-3-(N-methylsulfamoyl)phenyl)-2-hydroxybenzenesulfonamide]"
16,610,"COCCNC(=O)c1cc(Cl)cc(NS(=O)(=O)c2cc(Br)ccc2O)c1O [Example J15, 3-((5-Bromo-2-hydroxyphenyl)sulfonamido)-5-chloro-2-hydroxy-N-(2-methoxyethyl)benzamide]"
17,6760,"O=C(NC1COC1)c1cc(C2CC2)cc(NS(=O)(=O)c2cc(Br)ccc2O)c1F [Example J144, 3-((5-Bromo-2-hydroxyphenyl)sulfonamido)-5-cyclopropyl-2-fluoro-N-(oxetan-3-yl)benzamide]"
18,1440,"O=C(NCCN1CCOCC1)c1cc(OC(F)(F)F)cc(NS(=O)(=O)c2cc(Br)ccc2O)c1O [Example J164, 3-((5-Bromo-2-hydroxyphenyl)sulfonamido)-2-hydroxy-N-(2-morpholinoethyl)-(trifluoromethoxy)benzamide]"

row,Ki [nM],Molecule
1,1710,"O=C(c1cc(OC(F)(F)F)cc(NS(=O)(=O)c2cc(Br)ccc2O)c1O)N1CCC[C@H]1CO [Example J169, (S)-5-Bromo-2-hydroxy-N-(2-hydroxy-3-(2-(hydroxymethyl)pyrrolidine-1-carbonyl)-5-(trifluoromethoxy)phenyl)benzenesulfonamide]"
2,800,"CS(=O)(=O)c1cc(Cl)cc(NS(=O)(=O)c2cc(Br)cc(Cl)c2O)c1F [Example S54, 5-Bromo-3-chloro-N-(5-chloro-2-fluoro-3-(methylsulfonyl)phenyl)-2-hydroxybenzenesulfonamide]"
3,380,"O=C(NC1COC1)c1cc(OC(F)(F)F)cc(NS(=O)(=O)c2cc(Br)ccc2O)c1O [HCH-9, 3-((5-Bromo-2-hydroxyphenyl)sulfonamido)-2-hydroxy-N-(oxetan-3-yl)-5-(trifluoromethoxy)benzamide]"
4,420,"O=C(NCC1CCCO1)c1cc(OC(F)(F)F)cc(NS(=O)(=O)c2cc(Br)ccc2O)c1O (stereo not shown) [Example J165, 3-((5-Bromo-2-hydroxyphenyl)sulfonamido)-2-hydroxy-N-((tetrahydrofuran-2-yl)methyl)-5-(trifluoromethoxy)benzamide]"
5,260,"NC(=O)[C@H](CO)NC(=O)c1cc(OC(F)(F)F)cc(NS(=O)(=O)c2cc(Br)ccc2O)c1O [HCH-47, (S)—N-(1-Amino-3-hydroxy-1-oxopropan-2-yl)-3-((5-bromo-2-hydroxyphenyl)sulfonamido)-2-hydroxy-5-(trifluoromethoxy)benzamide]"
6,1480,"COCCNC(=O)c1cc(C2CC2)cc(NS(=O)(=O)c2cc(Br)ccc2O)c1F [Example J142, 3-((5-Bromo-2-hydroxyphenyl)sulfonamido)-5-cyclopropyl-2-fluoro-N-(2-methoxyethyl)benzamide]"
7,2540,"O=C(NCCN1CCOCC1)c1cc(C2CC2)cc(NS(=O)(=O)c2cc(Br)ccc2O)c1F [Example J143, 3-((5-Bromo-2-hydroxyphenyl)sulfonamido)-5-cyclopropyl-2-fluoro-N-(2-morpholinoethyl)benzamide]"
8,2260,"COCCNC(=O)c1cc(F)cc(NS(=O)(=O)c2cc(Br)ccc2O)c1O [Example J110, 3-((5-Bromo-2-hydroxyphenyl)sulfonamido)-5-fluoro-2-hydroxy-N-(2-methoxyethyl)benzamide]"
9,230,"O=C(NCC1CCCO1)c1cc(Cl)cc(NS(=O)(=O)c2cc(Br)ccc2O)c1O (stereo not shown) [Example J25, 3-((5-Bromo-2-hydroxyphenyl)sulfonamido)-5-chloro-2-hydroxy-N-((tetrahydrofuran-2-yl)methyl)benzamide]"
10,520,"O=C(O)c1cc(NS(=O)(=O)c2cc(Br)ccc2O)cc(C2CC2)c1F [Example J114, 5-((5-Bromo-2-hydroxyphenyl)sulfonamido)-3-cyclopropyl-2-fluorobenzoic acid]"
11,2450,"COCCCNC(=O)c1cc(Cl)cc(NS(=O)(=O)c2cc(Br)ccc2OC)c1O [Example J51, 3-((5-Bromo-2-methoxyphenyl)sulfonamido)-5-chloro-2-hydroxy-N-(3-methoxypropyl)benzamide]"
12,750,"CNC(=O)c1cc(C2CC2)cc(NS(=O)(=O)c2cc(Br)ccc2O)c1O [Example J81, 3-((5-Bromo-2-hydroxyphenyl)sulfonamido)-5-cyclopropyl-2-hydroxy-N-methylbenzamide]"
13,1020,"COc1ccc(Br)cc1S(=O)(=O)Nc1cc(Cl)cc(C(=O)NCC2CCCO2)c1O (stereo not shown) [Example J65, 3-((5-Bromo-2-methoxyphenyl)sulfonamido)-5-chloro-2-hydroxy-N-((tetrahydrofuran-2-yl)methyl)benzamide]"
14,4440,"CN1CCN(C(=O)c2cc(C3CC3)cc(NS(=O)(=O)c3cc(Br)ccc3O)c2O)CC1 [Example J92, 5-Bromo-N-(5-cyclopropyl-2-hydroxy-3-(4-methylpiperazine-1-carbonyl)phenyl)-2-hydroxybenzenesulfonamide]"
15,360,"NC(=O)c1c(O)c(NS(=O)(=O)c2cc(Br)ccc2O)cc(C2CC2)c1F [Example J123, 3-((5-Bromo-2-hydroxyphenyl)sulfonamido)-5-cyclopropyl-6-fluoro-2-hydroxybenzamide]"
16,1970,"COCCNC(=O)c1c(O)c(NS(=O)(=O)c2cc(Br)ccc2O)cc(C2CC2)c1F [Example J127, 3-((5-Bromo-2-hydroxyphenyl)sulfonamido)-5-cyclopropyl-6-fluoro-2-hydroxy-N-(2-methoxyethyl)benzamide]"
17,260,"CNC(=O)c1cc(C2(C#N)CCC2)cc(NS(=O)(=O)c2cc(Br)cc(C)c2O)c1O [Example J212, 3-((5-Bromo-2-hydroxy-3-methylphenyl)sulfonamido)-5-(1-cyanocyclobutyl)-2-hydroxy-N-methylbenzamide]"

row,Molecule,Ki [nM]
1,Methyl 4-chloro-2-(N-(5-chloro-2-hydroxy-3-nitrophenyl)sulfamoyl)benzoate [NE5],460
2,2-Bromo-N-(5-chloro-2-hydroxy-3-nitrophenyl)-4-ethyl-5-hydroxybenzenesulfonamide [NE3],60
